Test results from patent publication US20110190503A1, “Thiazolopyridin-2-yloxy-phenyl and thiazolopyrazin-2-yloxy-phenyl amines as modulators of leukotriene A4 hydrolase” (Janssen Pharmaceutical NV, priority 2008, published 2011).
pIC50: −log10 of the molar value. Counter-ions that a name gives are not always drawn.

Experiments:
[1] = biological target: T1, recombinant human LTA4 hydrolase (rhLTA4H) (Homo sapiens, UniProt P09960); assay: Recombinant human LTA4 hydrolase assay for LTA4 hydrolase inhibitor activity; assay type: biochemical; conditions: rhLTA4H, LTA4 substrate, LTB4 by immunoassay; single determination or average; read-out: IC50
T1 construct: made in house; host or cells: Spodoptera frugiperda (Sf-9) cells, recombinant baculovirus (pFastBac1)
T1 sequence (P09960 1-611): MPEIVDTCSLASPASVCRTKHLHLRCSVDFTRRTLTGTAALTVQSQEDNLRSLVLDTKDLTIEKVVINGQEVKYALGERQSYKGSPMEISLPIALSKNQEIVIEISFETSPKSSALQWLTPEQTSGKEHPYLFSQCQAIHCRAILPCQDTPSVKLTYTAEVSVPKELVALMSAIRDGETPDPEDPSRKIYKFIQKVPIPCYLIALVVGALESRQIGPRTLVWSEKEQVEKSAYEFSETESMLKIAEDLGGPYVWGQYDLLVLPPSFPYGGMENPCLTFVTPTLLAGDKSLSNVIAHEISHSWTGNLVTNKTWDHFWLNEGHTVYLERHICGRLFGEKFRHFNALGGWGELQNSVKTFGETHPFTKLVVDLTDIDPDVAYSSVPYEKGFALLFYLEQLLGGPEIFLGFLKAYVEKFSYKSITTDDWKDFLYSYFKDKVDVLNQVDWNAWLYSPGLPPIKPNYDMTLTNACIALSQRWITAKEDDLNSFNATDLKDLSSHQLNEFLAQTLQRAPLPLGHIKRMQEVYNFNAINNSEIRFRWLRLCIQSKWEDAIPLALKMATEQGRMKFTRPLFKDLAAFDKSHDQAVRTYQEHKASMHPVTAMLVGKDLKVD
Method in brief: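 LTB4 formed from LTA4 substrate (free acid from the methyl ester) was quantified by enzyme immunoassay after a 30 min rt reaction. Enzyme was 10 ng Sf-9-expressed human LTA4 hydrolase, pre-incubated 10 min with compound.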

[2] = system: LTB4 production by calcium ionophore-stimulated murine blood; assay: LTB4 production by calcium ionophore-stimulated murine blood for LTA4H inhibitor activity; assay type: cell-based, CD-1 mice; conditions: Mus musculus; murine blood diluted 1 in 15, calcium ionophore A23187, LTB4 by immunoassay; read-out: IC50
Method: Assay 2: LTB4 Production by Calcium Ionophore-Stimulated Murine Blood for LTA4H Inhibitor Activity
CD-1 mice were sacrificed, and blood was collected in heparin-containing syringes by cardiac puncture. […] After the microtiter plate contents were incubated for 15 min at 37° C. in a humidified incubator, calcium ionophore A23187 (Sigma Chemical Co., St. Louis, Mo.) was added to each sample well (final concentration=7 μg/mL). The incubation was continued under the same conditions for an additional 30 min to allow LTB4 formation. The reaction was terminated by centrifugation (833×g, 10 min at 4° C.), and supernatants were analyzed for LTB4 by a commercially available enzyme-linked immunoassay (Cayman Chemical Co.) according to the manufacturer's instructions. Positive controls, under essentially identical conditions but without addition of an inhibitor compound, and negative unstimulated controls, containing all assay components except calcium ionophore, were routinely run in each experiment. […] The values presented here are the result of a single determination or an average of two or more determinations, as indicated in parentheses following each value. For compounds tested three or more times, the average value is followed by the standard deviation

Cc1ccnc2sc(Oc3ccc(CN4CCCCC4)cc3)nc12 [Example 280, 7-Methyl-2-[4-(piperidin-1-ylmethyl)phenoxy][1,3]thiazolo[5,4-b]pyridine] was tested, and the pIC50 [1] was < 5.00.
NC(=O)N1C[C@H]2CC[C@@H](C1)N2CCOc1ccc(Oc2nc3ncccc3s2)cc1 [Example 211, meso-8-{2-[4-([1,3]Thiazolo[4,5-b]pyridin-2-yloxy)phenoxy]ethyl}-3,8-diazabicyclo[3.2.1]octane-3-carboxamide] showed a pIC50 [1] of 7.62.
Work on c1cc(C2CCN(Cc3ccc(Oc4nc5cnccc5s4)cc3)CC2)ccn1 [Example 190, 2-({4-[(4-Pyridin-4-ylpiperidin-1-yl)methyl]phenyl}oxy)[1,3]thiazolo[4,5-c]pyridine] yielded a pIC50 [1] of 6.34.
NC(=O)N1[C@@H]2CC[C@H]1CN(Cc1ccc(Oc3nc4ncccc4s3)cc1)C2 [Example 171, meso-3-{[4-([1,3]Thiazolo[4,5-b]pyridin-2-yloxy)phenyl]methyl}-3,8-diazabicyclo[3.2.1]octane-8-carboxamide] was tested, and the pIC50 [1] was 7.38.
In the case of Cc1ccnc2nc(Oc3ccc(CN4[C@@H]5CC[C@H]4CN(S(C)(=O)=O)C5)cc3)sc12 [Example 205, meso-7-Methyl-2-(4-{[3-(methylsulfonyl)-3,8-diazabicyclo[3.2.1]oct-8-yl]methyl}phenoxy)[1,3]thiazolo[4,5-b]pyridine], the pIC50 [1] was 7.31.
Compound COCC(=O)NC1CCN(Cc2ccc(Oc3nc4ncc(C)cc4s3)cc2)CC1 [Example 216, 2-Methoxy-N-(1-{4-[(6-methyl[1,3]thiazolo[4,5-b]pyridin-2-yl)oxy]benzyl}piperidin-4-yl)acetamide] has a pIC50 [1] of 7.22.
For Cc1ccnc2nc(Oc3ccc(OCCN4[C@@H]5CC[C@H]4C[C@@H](NC(=O)CN)C5)cc3)sc12 [Example 166, meso-N-{(3-endo)-8-[2-({4-[(7-Methyl[1,3]thiazolo[4,5-b]pyridin-2-yl)oxy]phenyl}oxy)ethyl]-8-azabicyclo[3.2.1]oct-3-yl}glycinamide hydrochloride], the pIC50 [1] was 6.94.
CCC(=O)NC1CCN(Cc2ccc(Oc3nc4cccnc4s3)cc2)CC1 [Example 219, N-{1-[4-([1,3]Thiazolo[5,4-b]pyridin-2-yloxy)benzyl]piperidin-4-yl}propanamide] showed a pIC50 [1] of 6.56.
Compound CC(=O)N1[C@@H]2CC[C@H]1CN(CCc1ccc(Oc3nc4ncccc4s3)cc1)C2 [Example 212, meso-2-(4-{2-[8-Acetyl-3,8-diazabicyclo[3.2.1]oct-3-yl]ethyl}phenoxy)[1,3]thiazolo[4,5-b]pyridine] has a pIC50 [1] of 7.74.
In the case of c1ccc2c(c1)CN(CCOc1ccc(Oc3nc4ncccc4s3)cc1)C2 [Example 2, 2-{4-[2-(1,3-Dihydro-2H-isoindol-2-yl)ethoxy]phenoxy}[1,3]thiazolo[4,5-b]pyridine], the pIC50 [1] was 6.96.
With c1cnc2nc(Oc3ccc(OCCNC4CC4)cc3)sc2c1 [Example 139, N-{2-[4-([1,3]Thiazolo[4,5-b]pyridin-2-yloxy)phenoxy]ethyl}cyclopropanamine] the pIC50 [1] was 7.39.
With CC(=O)N1C[C@@H]2C[C@H]1CN2Cc1ccc(Oc2nc3c(C)ccnc3s2)cc1 [Example 281, 2-(4-{[(1S,4S)-5-Acetyl-2,5-diazabicyclo[2.2.1]hept-2-yl]methyl}phenoxy)-7-methyl[1,3]thiazolo[5,4-b]pyridine] the pIC50 [1] was < 5.00.
For CC(=O)N1C[C@@H]2C[C@H]1CN2Cc1ccc(Oc2nc3nc(C)ccc3s2)cc1 [Example 126, 2-(4-{[(1S,4S)-5-Acetyl-2,5-diazabicyclo[2.2.1]hept-2-yl]methyl}phenoxy)-5-methyl[1,3]thiazolo[4,5-b]pyridine], the pIC50 [1] was 6.04.
With CC(=O)N1CC(CN(C)Cc2ccc(Oc3nc4ncc(Cl)cc4s3)cc2)C1 [Example 247, 1-(1-Acetylazetidin-3-yl)-N-{4-[(6-chloro[1,3]thiazolo[4,5-b]pyridin-2-yl)oxy]benzyl}-N-methylmethanamine] the pIC50 [1] was 7.48.
CN(CCN1CCCCC1)Cc1ccc(Oc2nc3ncccc3s2)cc1 [Example 271, N-Methyl-2-piperidin-1-yl-N-[4-([1,3]thiazolo[4,5-b]pyridin-2-yloxy)benzyl]ethanamine] gave a pIC50 [1] of 6.53.
In the case of OCC1CN(Cc2ccc(Oc3nc4ncccc4s3)cc2)CCO1 (stereo not shown) [Example 82, {4-[4-([1,3]Thiazolo[4,5-b]pyridin-2-yloxy)benzyl]morpholin-2-yl}methanol], the pIC50 [1] was 6.85.
With CC(=O)N1CC2CN(CCc3ccc(Oc4nc5cccnc5s4)cc3)CC2C1 (stereo not shown) [Example 69, 2-{4-[2-(5-Acetylhexahydropyrrolo[3,4-c]pyrrol-2(1H)-yl)ethyl]phenoxy}[1,3]thiazolo[5,4-b]pyridine] the pIC50 [1] was 6.92.
Work on OCCN(CCOc1ccc(Oc2nc3cccnc3s2)cc1)CC1CC1 [Example 157, 2-[(Cyclopropylmethyl){2-[4-([1,3]thiazolo[5,4-b]pyridin-2-yloxy)phenoxy]ethyl}amino]ethanol] yielded a pIC50 [1] of 6.94.
In the case of CC(=O)N[C@H]1C[C@H]2CC[C@@H](C1)N2Cc1ccc(Oc2nc3ccncc3s2)cc1 [Example 115, meso-N-{(3-endo)-8-[4-([1,3]Thiazolo[5,4-c]pyridin-2-yloxy)benzyl]-8-azabicyclo[3.2.1]oct-3-yl}acetamide], the pIC50 [1] was 6.49.
In the case of CC(=O)N1CCN(CCc2ccc(Oc3nc4ccncc4s3)cc2)CC1 [Example 176, 2-{4-[2-(4-Acetylpiperazin-1-yl)ethyl]phenoxy}[1,3]thiazolo[5,4-c]pyridine], the pIC50 [1] was 6.08.
CS(=O)(=O)N1C[C@H]2C[C@@H]1CN2CCOc1ccc(Oc2nc3ccncc3s2)cc1 [Example 151, 2-(4-{2-[(1R,4R)-5-(Methylsulfonyl)-2,5-diazabicyclo[2.2.1]hept-2-yl]ethoxy}phenoxy)[1,3]thiazolo[5,4-c]pyridine] showed a pIC50 [1] of 6.44.
O=C(Cc1cccs1)N1CCN(Cc2ccc(Oc3nc4nccnc4s3)cc2)CC1 [Example 173, 2-[(4-{[4-(2-Thienylacetyl)piperazin-1-yl]methyl}phenyl)oxy][1,3]thiazolo[4,5-b]pyrazine] was tested, and the pIC50 [1] was 6.41.
Compound OC1(c2ccccc2)CCN(CCc2ccc(Oc3nc4ncccc4s3)cc2)CC1 [Example 62, 4-Phenyl-1-{2-[4-([1,3]thiazolo[4,5-b]pyridin-2-yloxy)phenyl]ethyl}piperidin-4-ol] has a pIC50 [1] of 8.08.
In the case of CCOC(=O)CN(Cc1ccccc1)Cc1ccc(Oc2nc3ncccc3s2)cc1 [Example 273, Ethyl N-benzyl-N-[4-([1,3]thiazolo[4,5-b]pyridin-2-yloxy)benzyl]glycinate], the pIC50 [1] was 6.75.
Work on Clc1cnc2nc(Oc3ccc(CN4CCCCC4)cc3)sc2c1 [Example 279, 6-Chloro-2-(4-piperidin-1-ylmethyl-phenoxy)[1,3]thiazolo[4,5-b]pyridine] yielded a pIC50 [2] of 6.26.
c1cc2sc(Oc3ccc(CN4CCCCC4)cc3)nc2cn1 [Example 133, 2-[4-(Piperidin-1-ylmethyl)phenoxy][1,3]thiazolo[4,5-c]pyridine] showed a pIC50 [1] of 5.73.
With Cc1cnc2nc(Oc3ccc(OCCN4CCC(C(=O)N5CCOCC5)CC4)cc3)sc2c1 [Example 145, 6-Methyl-2-(4-{2-[4-(morpholin-4-ylcarbonyl)piperidin-1-yl]ethoxy}phenoxy)[1,3]thiazolo[4,5-b]pyridine] the pIC50 [1] was 6.56.
O=C(NC1CCN(CCc2ccc(Oc3nc4ccncc4s3)cc2)CC1)C1CC1 [Example 192, N-(1-{2-[4-([1,3]Thiazolo[5,4-c]pyridin-2-yloxy)phenyl]ethyl}piperidin-4-yl)cyclopropanecarboxamide] showed a pIC50 [1] of 6.29.
NC(=O)N1CC2CN(CCc3ccc(Oc4nc5ccncc5s4)cc3)CC2C1 (stereo not shown) [Example 246, 5-{2-[4-([1,3]Thiazolo[5,4-c]pyridin-2-yloxy)phenyl]ethyl}hexahydropyrrolo[3,4-c]pyrrole-2(1H)-carboxamide] showed a pIC50 [1] of 6.48.
With CCCN(Cc1ccc(Oc2nc3cnccc3s2)cc1)CC1CC1 [Example 186, N-(Cyclopropylmethyl)-N-{[4-([1,3]thiazolo[4,5-c]pyridin-2-yloxy)phenyl]methyl}propan-1-amine] the pIC50 [1] was 6.58.
CC(=O)N1C[C@@H]2C[C@H]1CN2Cc1ccc(Oc2nc3ccc(C)nc3s2)cc1 [Example 118, 2-(4-{[(1S,4S)-5-Acetyl-2,5-diazabicyclo[2.2.1]hept-2-yl]methyl}phenoxy)-5-methyl[1,3]thiazolo[5,4-b]pyridine] gave a pIC50 [1] of 5.43.
